From ChEMBL document CHEMBL1138572, “The synthesis of N-phenoxyethyl-1-substituted-1,2,3,4-tetrahydroisoquinolines and their alpha1-adrenoceptor blocking activity” (Eur J Med Chem, 2009)

target: T1, Adrenergic receptor alpha-1 (Rattus norvegicus, UniProt P15823+P23944+P43140); test: Antagonist activity at alpha1 adrenoceptor in Sprague-Dawley rat aorta assessed as inhibition of norepinephrine-induced contraction treated 30 mins before norepinephrine challenge
T1 sequence (P15823 whole entry): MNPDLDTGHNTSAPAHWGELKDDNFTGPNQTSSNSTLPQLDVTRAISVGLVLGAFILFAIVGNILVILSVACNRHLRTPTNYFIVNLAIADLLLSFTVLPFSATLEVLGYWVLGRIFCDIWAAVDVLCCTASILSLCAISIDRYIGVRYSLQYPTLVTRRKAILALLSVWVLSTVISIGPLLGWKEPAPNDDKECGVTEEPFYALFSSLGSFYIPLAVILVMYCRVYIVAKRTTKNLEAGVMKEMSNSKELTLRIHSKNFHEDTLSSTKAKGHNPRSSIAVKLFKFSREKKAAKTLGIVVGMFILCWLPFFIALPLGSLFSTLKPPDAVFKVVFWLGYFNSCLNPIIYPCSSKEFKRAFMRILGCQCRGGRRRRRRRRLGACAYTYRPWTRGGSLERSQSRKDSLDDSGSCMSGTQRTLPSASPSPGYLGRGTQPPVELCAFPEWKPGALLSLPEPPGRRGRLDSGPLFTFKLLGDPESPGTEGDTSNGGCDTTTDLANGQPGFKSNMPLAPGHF
T1 sequence (P23944 whole entry): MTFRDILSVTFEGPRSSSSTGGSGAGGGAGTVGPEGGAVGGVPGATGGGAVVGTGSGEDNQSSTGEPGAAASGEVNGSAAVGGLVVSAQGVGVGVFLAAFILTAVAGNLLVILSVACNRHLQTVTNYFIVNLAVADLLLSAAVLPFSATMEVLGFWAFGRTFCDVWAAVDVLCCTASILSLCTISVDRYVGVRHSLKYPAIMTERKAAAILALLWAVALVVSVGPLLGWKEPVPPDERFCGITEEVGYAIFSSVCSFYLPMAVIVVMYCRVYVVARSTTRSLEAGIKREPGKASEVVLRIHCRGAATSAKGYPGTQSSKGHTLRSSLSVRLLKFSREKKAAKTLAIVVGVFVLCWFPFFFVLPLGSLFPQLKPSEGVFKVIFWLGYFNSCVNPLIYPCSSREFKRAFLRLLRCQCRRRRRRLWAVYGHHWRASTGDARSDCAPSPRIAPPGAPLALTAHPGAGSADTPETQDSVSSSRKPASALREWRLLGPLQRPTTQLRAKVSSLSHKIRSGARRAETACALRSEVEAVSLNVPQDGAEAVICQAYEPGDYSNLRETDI
T1 sequence (P43140 whole entry): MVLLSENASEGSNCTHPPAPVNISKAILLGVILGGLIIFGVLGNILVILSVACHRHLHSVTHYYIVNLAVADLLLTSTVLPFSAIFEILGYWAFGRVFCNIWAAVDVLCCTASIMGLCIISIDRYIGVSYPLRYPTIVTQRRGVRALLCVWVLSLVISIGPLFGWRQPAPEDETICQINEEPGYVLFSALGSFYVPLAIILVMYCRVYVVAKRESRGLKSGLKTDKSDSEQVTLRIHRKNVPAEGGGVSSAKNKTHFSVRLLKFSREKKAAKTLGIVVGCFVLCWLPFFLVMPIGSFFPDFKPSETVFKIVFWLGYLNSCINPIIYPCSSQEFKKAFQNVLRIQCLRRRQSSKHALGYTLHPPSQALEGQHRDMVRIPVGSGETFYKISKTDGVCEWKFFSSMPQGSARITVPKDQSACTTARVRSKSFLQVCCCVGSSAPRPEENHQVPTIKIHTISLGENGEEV

Compound	pA2
COc1ccc2c(c1)C(c1ccccc1[N+](=O)[O-])N(CCOc1ccccc1)CC2 (stereo not drawn)	8.11
COc1cc2c(cc1OC)C(c1ccccc1[N+](=O)[O-])N(CCOc1ccccc1)CC2 (stereo not drawn)	9.01
Nc1ccccc1C1c2ccccc2CCN1CCOc1ccccc1 (stereo not drawn)	5.46
COc1ccc(NCCOc2ccccc2)c(C2c3cc(OC)c(OC)cc3CCN2CCOc2ccccc2)c1 (stereo not drawn)	8.34
c1ccc(OCCNc2ccccc2C2c3ccccc3CCN2CCOc2ccccc2)cc1 (stereo not drawn)	7.71
COc1ccc2c(c1)C(c1ccccc1NCCOc1ccccc1)N(CCOc1ccccc1)CC2 (stereo not drawn)	6.72
O=[N+]([O-])c1ccccc1C1c2ccccc2CCN1CCOc1ccccc1 (stereo not drawn)	7.94
COc1cc2c(cc1OC)C(Cc1ccccc1)N(CCOc1ccccc1)CC2 (stereo not drawn)	8.23

Second part, the molecule after the results:

pA2	Compound
8.33	COc1cc2c(cc1OC)C(c1ccccc1NCCOc1ccccc1)N(CCOc1ccccc1)CC2 (stereo not drawn)
7.66	COc1cc2c(cc1OC)C(c1ccccc1N)N(CCOc1ccccc1)CC2 (stereo not drawn)
7.51	COc1ccc(N)c(C2c3cc(OC)c(OC)cc3CCN2CCOc2ccccc2)c1 (stereo not drawn)
8.46	COc1ccc([N+](=O)[O-])c(C2c3cc(OC)c(OC)cc3CCN2CCOc2ccccc2)c1 (stereo not drawn)
7.36	COc1ccc2c(c1)C(c1ccccc1N)N(CCOc1ccccc1)CC2 (stereo not drawn)
